Test results published in patent publication US20130065818A1, “Arylamide Compounds And Compositions And Uses Thereof” (POLYMEDIX, priority 2006, published 2013).

What was measured:
Assay in all cases: MIC of clinical ocular isolates (Example 1)
Type in all cases: cell-based
[1] = tested on: CS S. epidermidis (CSSE); details: Staphylococcus epidermidis; CSSE clinical ocular isolates (n=26)
[2] = tested on: P. aeruginosa (PA); details: Pseudomonas aeruginosa; PA clinical ocular isolates (n=26)
[3] = tested on: CR S. epidermidis (CRSE); details: Staphylococcus epidermidis; CRSE clinical ocular isolates (n=26)
[4] = tested on: Serratia marcescens (SM); details: SM clinical ocular isolates (n=27)
[5] = tested on: St. pneumoniae (SP); details: Streptococcus pneumoniae; SP clinical ocular isolates (n=27)
[6] = tested on: Moraxella Species (MS); details: MS clinical ocular isolates (n=25)
[7] = tested on: Ciprofloxacin Resistant (CR) S. aureus (CRSA); details: Staphylococcus aureus; CRSA clinical ocular isolates (n=28)
[8] = tested on: St. viridans group (SV); details: Streptococcus viridans
[9] = tested on: H. influenzae (HI); details: Haemophilus influenzae; HI clinical ocular isolates (n=26)
[10] = tested on: Ciprofloxacin Susceptible (CS) S. aureus (CSSA); details: Staphylococcus aureus; CSSA clinical ocular isolates (n=27)

MIC50 [1]: 0.03 µg/mL
MIC90 [1]: 0.03 µg/mL
MIC50 [2]: 4 µg/mL
MIC90 [2]: 8 µg/mL
MIC50 [3]: 0.03 µg/mL
MIC90 [3]: 0.03 µg/mL
MIC50 [4]: 16 µg/mL
MIC90 [4]: 32 µg/mL
MIC50 [5]: 1 µg/mL
MIC90 [5]: 2 µg/mL
MIC50 [6]: 0.25 µg/mL
MIC90 [6]: 0.5 µg/mL
MIC50 [7]: 0.25 µg/mL
MIC90 [7]: 0.25 µg/mL
MIC50 [8]: 4 µg/mL
MIC90 [8]: 32 µg/mL
MIC50 [9]: 8 µg/mL
MIC90 [9]: 16 µg/mL
MIC50 [10]: 0.125 µg/mL
MIC90 [10]: 0.25 µg/mL
SMILES: N=C(N)NCCCCC(=O)Nc1cc(C(F)(F)F)cc(NC(=O)c2cc(C(=O)Nc3cc(C(F)(F)F)cc(NC(=O)CCCCNC(=N)N)c3SCCN)ncn2)c1SCCN [Oligomer 2]
